Measurements taken from PubChem BioAssay (NCI).
“And” between values parts separate entries of the source, which are not always exact repeats. Equal entries are not always repeated.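 Assay format: 96-well plates, 48-hour exposure. GI50 = concentration required for 50% inhibition of growth. At the TGI there is no net growth.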

Experiments:
Test in all cases: inhibition of tumour cell growth, NCI panel, 48 h
[1] = tested on: A549 NSCLC
[2] = tested on: HCC-2998 colon
[3] = tested on: HCT-15 colon
[4] = tested on: K-562 leukemia
[5] = tested on: KM12 colon
[6] = tested on: M14 melanoma
[7] = tested on: NCI-H226 lung
[8] = tested on: NCI-H23 lung
[9] = tested on: RXF 393 renal
[10] = tested on: UACC-257 melanoma

Compound	GI50 [1]	TGI [1] [µM]	GI50 [2]	TGI [2]	GI50 [3]	TGI [3] [µM]	GI50 [4]	TGI [4] [µM]	GI50 [5]	TGI [5]	GI50 [6]	TGI [6]	GI50 [7]	TGI [7] [µM]	GI50 [8]	TGI [8]	GI50 [9]	TGI [9]	GI50 [10]	TGI [10]
CC[C@]1(O)C[C@@H]2CN(CCc3c([nH]c4ccccc34)[C@@](C(=O)OC)(c3cc4c(cc3OC)N(C)[C@H]3[C@@](O)(C(=O)OC)[C@H](OC(=O)CCCBr)[C@]5(CC)C=CCN6CC[C@]43[C@@H]65)C2)C1	< 16.6 nM	> 100	13.2 nM	1.31 µM	0.12 µM	> 100	< 10 nM	> 100	< 16.3 nM	3.84 µM	54.3 nM	25.9 µM	5.87 µM	99.7	< 20.4 nM	> 100 µM	< 10 nM	< 10 nM	3.27 µM	> 100 µM
COC(=O)c1sc(=S)c2sc(C(=O)OC)c(C(=O)OC)c2c1C(=O)OC	51200 nM	> 100	20500 nM	76.1 µM	38 µM	> 100	36200 nM	> 100	36400 nM	> 100 µM	32500 nM	> 100 µM	42 µM	> 100	44800 nM	> 100 µM	41700 nM	> 100000 nM	26.8 µM	92 µM
COc1cc2ccc(CC(=O)O)cc2cc1OC		> 100		> 100 µM		> 100		> 100		> 100 µM		> 100 µM		> 100		> 100 µM		> 100000 nM		> 100 µM
CC(C)(C)c1cnc(CSc2cnc(NC(=O)C3CCNCC3)s2)o1	256 nM and 230 nM	> 10	270 nM and 243 nM	3.79 µM and 1.67 µM	4.76 µM and > 6.31 µM	> 100	337 nM and 229 nM	> 53.2	140 nM and 166 nM	5.35 µM and > 10 µM	441 nM and 564 nM	2.87 µM and 2.61 µM	0.663 µM and 0.222 µM		251 nM and 211 nM	0.767 µM and > 2.56 µM	124 nM and 157 nM	354 nM and 509 nM	0.221 µM and 0.317 µM	0.634 µM and 1.74 µM
Clc1ccc(/C=C/c2csnn2)cc1		> 100		> 100 µM		> 100		> 100		> 100 µM		> 100 µM		> 100		> 100 µM		> 100000 nM		> 100 µM
CN1CCC(C(=O)Nc2n[nH]c3nnc(-c4ccccc4)cc23)CC1	> 25000 nM	> 25	> 25000 nM	> 25 µM	> 25 µM	> 25	> 25000 nM	> 25	19400 nM	> 25 µM	> 25000 nM	> 25 µM	> 22.3 µM	> 25	> 25000 nM	> 25 µM	12300 nM	> 25000 nM	> 25 µM	> 25 µM
Cc1cc(=O)[nH]c2c1C(=O)c1c(C)cc(=O)n(C)c1C2=O		0.399		0.058 µM		0.264		> 10		0.192 µM		0.0282 µM		0.0777		0.03 µM		281 nM		0.0307 µM
